Experimental data published in US9499519B2, “Fused pyrimidine compounds and use thereof” (Medivation Technologies, Inc., priority 2012, dated 2016).
Where two headings read alike, the source gives them in different places. Blank lines part the entries; values can stand above or below the molecule they belong to.

Key:
IGF-1R = biological target: T1, IGF-1R (Homo sapiens, UniProt P08069); assay: In vitro IGF-1R enzymatic assay (ADP-Glo kinase assay); assay type: biochemical; conditions: activated IGF-1R; for inhibition at 0.03 µM / % Inh @ 30 nM Avg: 30 nM
T1 construct: purchased Millipore 14-802
Method: (§1) IC50 values of the compounds of the invention against IGF-1R and IR were measured in vitro using an ADP-Glo kinase assay Kit (Promega). […] Kinase reactions in both assays were conducted at 30° C. for 20 min with increasing concentrations of compounds of the invention.
Additional compounds of the invention were screened against activated IGF-1R.

[1] = test system: Akt phosphorylation induced by IGF-1R; assay: Western blot analysis of Akt phosphorylation induced by IGF-1 in HT-29 cells; assay type: cell-based, Human; conditions: for Levels of phosphorylated AKT in treated cells (pAKT/actin): HT-29 cells, IGF-1; for p-AKT relative to levels with 0.1 nM compound: Table B2 lower part; for Normalized phosphorylated AKT (relative to actin) levels relative to 0.1 nM compound treatment: Table B2 upper part; for pAKT relative to 0.1 nM compound: derivatives of Cpd. No. 8b
Method: Inhibition of Akt phosphorylation induced by IGF-1R was studied by western blot analysis. Human colon carcinoma HT-29 cells were seeded at a density of 8×10^4 cells/well in a 24-well plate and grown in DME/F12 media containing 10% FBS for 24 h. The cells were then depleted of serum by incubation in DME/F12 media lacking FBS for 24 h. […] […] Lysed cells were centrifuged at 13,000 rpm for 15 min and the protein concentration soluble fraction (supernatant) of each sample was determined using a BCA protein assay (Pierce).

IR = biological target: T2, IR (Homo sapiens, UniProt P06213); assay: In vitro IR enzymatic assay (ADP-Glo kinase assay); assay type: biochemical; conditions: activated IR, 30 nM; for % Inh @ 30 nM (N1) / % Inh @ 30 nM (N2): 0.03 µM
T2 construct: purchased Millipore 14-803
Method: as §1
Additional compounds of the invention were screened against activated IR.

[2] = N1, read-out: % Inh @ 30 nM (N1)
[3] = N2, read-out: % Inh @ 30 nM (N2)
[4] = average, read-out: % Inh @ 30 nM Avg

T2 sequence (P06213 28-1382): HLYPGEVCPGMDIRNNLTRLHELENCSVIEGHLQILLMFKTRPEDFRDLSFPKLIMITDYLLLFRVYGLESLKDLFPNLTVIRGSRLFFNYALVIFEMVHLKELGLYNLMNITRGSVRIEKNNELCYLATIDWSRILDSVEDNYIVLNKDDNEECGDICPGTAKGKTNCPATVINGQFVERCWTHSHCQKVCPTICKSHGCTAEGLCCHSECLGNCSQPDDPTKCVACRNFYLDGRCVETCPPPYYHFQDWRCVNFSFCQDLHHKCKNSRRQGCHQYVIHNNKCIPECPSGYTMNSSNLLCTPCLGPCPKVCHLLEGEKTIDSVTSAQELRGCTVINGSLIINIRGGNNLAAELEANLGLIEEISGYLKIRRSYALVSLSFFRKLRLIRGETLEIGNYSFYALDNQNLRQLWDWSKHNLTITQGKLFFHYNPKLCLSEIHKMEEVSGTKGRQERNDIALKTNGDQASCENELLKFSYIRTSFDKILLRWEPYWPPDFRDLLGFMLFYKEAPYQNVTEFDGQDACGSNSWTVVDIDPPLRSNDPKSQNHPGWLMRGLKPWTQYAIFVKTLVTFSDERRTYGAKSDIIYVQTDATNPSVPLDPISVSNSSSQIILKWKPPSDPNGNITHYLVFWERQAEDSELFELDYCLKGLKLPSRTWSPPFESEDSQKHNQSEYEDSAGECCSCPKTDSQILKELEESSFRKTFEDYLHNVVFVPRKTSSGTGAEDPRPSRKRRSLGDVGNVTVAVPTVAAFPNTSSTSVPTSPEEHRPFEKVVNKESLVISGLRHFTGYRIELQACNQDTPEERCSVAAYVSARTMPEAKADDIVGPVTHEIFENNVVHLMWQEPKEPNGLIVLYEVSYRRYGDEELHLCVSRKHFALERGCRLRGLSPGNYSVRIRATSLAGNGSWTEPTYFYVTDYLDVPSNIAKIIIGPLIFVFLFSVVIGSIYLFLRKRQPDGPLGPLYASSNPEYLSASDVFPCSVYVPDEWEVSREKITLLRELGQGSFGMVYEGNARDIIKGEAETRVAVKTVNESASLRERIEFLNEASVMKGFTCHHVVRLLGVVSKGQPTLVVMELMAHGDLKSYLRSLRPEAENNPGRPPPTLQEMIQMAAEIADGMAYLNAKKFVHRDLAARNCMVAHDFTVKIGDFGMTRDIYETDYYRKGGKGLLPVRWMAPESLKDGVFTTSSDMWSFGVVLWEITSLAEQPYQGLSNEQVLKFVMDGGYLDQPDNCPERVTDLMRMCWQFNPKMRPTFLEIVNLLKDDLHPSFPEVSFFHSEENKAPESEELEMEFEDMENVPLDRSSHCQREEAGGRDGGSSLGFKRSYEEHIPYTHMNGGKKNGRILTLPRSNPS
T1 sequence (P08069 31-1367): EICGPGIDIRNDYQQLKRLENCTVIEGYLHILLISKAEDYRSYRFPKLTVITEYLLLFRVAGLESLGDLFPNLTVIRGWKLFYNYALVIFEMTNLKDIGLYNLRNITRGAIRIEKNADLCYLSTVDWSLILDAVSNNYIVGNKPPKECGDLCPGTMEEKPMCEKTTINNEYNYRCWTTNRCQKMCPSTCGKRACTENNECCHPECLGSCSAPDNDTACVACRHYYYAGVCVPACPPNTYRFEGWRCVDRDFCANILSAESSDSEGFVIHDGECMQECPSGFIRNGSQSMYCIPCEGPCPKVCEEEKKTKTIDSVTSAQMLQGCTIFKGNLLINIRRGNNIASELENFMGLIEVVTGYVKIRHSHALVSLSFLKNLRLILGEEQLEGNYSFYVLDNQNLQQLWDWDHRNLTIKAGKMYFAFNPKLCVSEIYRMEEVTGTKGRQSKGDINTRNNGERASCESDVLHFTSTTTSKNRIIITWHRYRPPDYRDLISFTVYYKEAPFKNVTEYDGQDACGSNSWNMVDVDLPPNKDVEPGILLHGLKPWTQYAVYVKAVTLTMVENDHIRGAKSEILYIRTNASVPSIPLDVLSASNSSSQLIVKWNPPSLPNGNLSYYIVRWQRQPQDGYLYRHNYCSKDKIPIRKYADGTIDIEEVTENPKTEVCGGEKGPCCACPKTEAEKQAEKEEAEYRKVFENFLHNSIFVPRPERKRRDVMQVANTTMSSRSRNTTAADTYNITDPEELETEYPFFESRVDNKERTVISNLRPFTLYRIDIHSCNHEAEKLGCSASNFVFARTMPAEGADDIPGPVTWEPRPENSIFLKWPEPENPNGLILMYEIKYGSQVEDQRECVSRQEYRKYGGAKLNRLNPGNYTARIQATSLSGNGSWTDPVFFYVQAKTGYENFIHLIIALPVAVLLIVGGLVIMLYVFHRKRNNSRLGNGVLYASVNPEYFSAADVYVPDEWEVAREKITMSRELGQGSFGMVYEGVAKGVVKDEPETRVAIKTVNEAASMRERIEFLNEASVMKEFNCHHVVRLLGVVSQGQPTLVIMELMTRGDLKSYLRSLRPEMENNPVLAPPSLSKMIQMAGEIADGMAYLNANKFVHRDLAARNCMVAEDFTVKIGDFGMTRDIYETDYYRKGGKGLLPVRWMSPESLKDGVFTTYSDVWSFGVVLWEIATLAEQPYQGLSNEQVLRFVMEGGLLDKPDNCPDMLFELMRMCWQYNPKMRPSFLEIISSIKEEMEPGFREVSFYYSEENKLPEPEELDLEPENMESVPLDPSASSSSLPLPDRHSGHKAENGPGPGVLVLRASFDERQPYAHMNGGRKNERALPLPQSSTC

SMILES: CNC(=O)C1CCCN1c1nc2c(c(Nc3cc(C(C)C)[nH]n3)n1)CCC2 (single isomer, unassigned) [Compound 19b, 1-(4-(5-isopropyl-1H-pyrazol-3-ylamino)-6,7-dihydro-5H-cyclopenta[d]pyrimidin-2-yl)-N-methylpyrrolidine-2-carboxamide]
% Inh @ 30 nM Avg (IGF-1R; average): 21%
% Inh @ 30 nM Avg (IR; average): 9%

SMILES: CC(C)c1cc(Nc2nc(N3CCC[C@@H]3C(=O)Nc3ccc(F)nc3)nc3c2CCC3)on1 (single isomer, unassigned) [Compound 12a]
Levels of phosphorylated AKT in treated cells (pAKT/actin) ([1]; 0.1 nM compound): 4.17
p-AKT relative to levels with 0.1 nM compound ([1]; 0.1 nM): 1.0
Normalized phosphorylated AKT (relative to actin) levels relative to 0.1 nM compound treatment ([1]; 0.1 nM): 1.0
Levels of phosphorylated AKT in treated cells (pAKT/actin) ([1]; 1 nM compound): 3.33
p-AKT relative to levels with 0.1 nM compound ([1]; 1 nM): 0.8
Normalized phosphorylated AKT (relative to actin) levels relative to 0.1 nM compound treatment ([1]; 1 nM): 0.8
Levels of phosphorylated AKT in treated cells (pAKT/actin) ([1]; 10 nM compound): 2.91
p-AKT relative to levels with 0.1 nM compound ([1]; 10 nM): 0.7
Normalized phosphorylated AKT (relative to actin) levels relative to 0.1 nM compound treatment ([1]; 10 nM): 0.7
Levels of phosphorylated AKT in treated cells (pAKT/actin) ([1]; 100 nM compound): 4.16
p-AKT relative to levels with 0.1 nM compound ([1]; 100 nM): 1.0
Normalized phosphorylated AKT (relative to actin) levels relative to 0.1 nM compound treatment ([1]; 100 nM): 1.0
inhibition at 0.03 µM (IR; [2]): 10%
inhibition at 0.03 µM (IR; [3]): 8%
inhibition at 0.03 µM (IR; [4]): 9%

SMILES: CNC(=O)C1CCCN1c1nc2c(c(Nc3cc(C(C)C)[nH]n3)n1)CCC2 (single isomer, unassigned) [Compound 19a, 1-(4-(5-isopropyl-1H-pyrazol-3-ylamino)-6,7-dihydro-5H-cyclopenta[d]pyrimidin-2-yl)-N-methylpyrrolidine-2-carboxamide]
% Inh @ 30 nM Avg (IGF-1R; average): −3%
% Inh @ 30 nM Avg (IR; average): −9%

SMILES: CC(C)c1cc(Nc2nc(N3CCCC3C(N)=O)nc3c2CCC3)n[nH]1 (single isomer, unassigned) [Compound 18b, 1-(4-(5-isopropyl-1H-pyrazol-3-ylamino)-6,7-dihydro-5H-cyclopenta[d]pyrimidin-2-yl)pyrrolidine-2-carboxamide]
% Inh @ 30 nM Avg (IGF-1R; average): 39%
% Inh @ 30 nM Avg (IR; average): 32%

SMILES: CC(C)c1cc(Nc2nc(N3CC(O)CC3C(=O)Nc3ccc(F)nc3)nc3c2CCC3)n[nH]1 (racemic) [Compound 70, N-(6-fluoropyridin-3-yl)-4-hydroxy-1-(4-(5-isopropyl-1H-pyrazol-3-ylamino)-6,7-dihydro-5H-cyclopenta[d]pyrimidin-2-yl)pyrrolidine-2-carboxamide]
IC50 (IGF-1R): 22 nM
inhibition at 0.03 µM (IGF-1R; [4]): 66%
inhibition at 0.03 µM (IR; [4]): 60%

SMILES: O=C(Nc1ccc(F)nc1)[C@H]1[C@@H](O)CCN1c1nc2c(c(Nc3cc(C4CC4)[nH]n3)n1)CCC2 (single isomer, unassigned) [Compound 11a]
Levels of phosphorylated AKT in treated cells (pAKT/actin) ([1]; 0.1 nM compound): 1.83
p-AKT relative to levels with 0.1 nM compound ([1]; 0.1 nM): 1.0
Normalized phosphorylated AKT (relative to actin) levels relative to 0.1 nM compound treatment ([1]; 0.1 nM): 1.0
Levels of phosphorylated AKT in treated cells (pAKT/actin) ([1]; 1 nM compound): 1.55
p-AKT relative to levels with 0.1 nM compound ([1]; 1 nM): 0.8
Normalized phosphorylated AKT (relative to actin) levels relative to 0.1 nM compound treatment ([1]; 1 nM): 0.8
Levels of phosphorylated AKT in treated cells (pAKT/actin) ([1]; 10 nM compound): 1.43
p-AKT relative to levels with 0.1 nM compound ([1]; 10 nM): 0.8
Normalized phosphorylated AKT (relative to actin) levels relative to 0.1 nM compound treatment ([1]; 10 nM): 0.8
Levels of phosphorylated AKT in treated cells (pAKT/actin) ([1]; 100 nM compound): 1.58
p-AKT relative to levels with 0.1 nM compound ([1]; 100 nM): 0.9
Normalized phosphorylated AKT (relative to actin) levels relative to 0.1 nM compound treatment ([1]; 100 nM): 0.9
% Inh @ 30 nM (N1) (IR; N1): −17%
% Inh @ 30 nM (N2) (IR; N2): −9%
% Inh @ 30 nM Avg (IR; average): −13%

SMILES: O=C(Nc1ccc(F)nc1)C1CCCN1c1nc2c(c(Nc3cc(C4CCCC4)[nH]n3)n1)CCCC2 (single isomer, unassigned) [Compound 15a, 1-(4-(5-cyclopentyl-1H-pyrazol-3-ylamino)-5,6,7,8-tetrahydroquinazolin-2-yl)-N-(6-fluoropyridin-3-yl)pyrrolidine-2-carboxamide]
Levels of phosphorylated AKT in treated cells (pAKT/actin) ([1]; 0.1 nM compound): 0.70
p-AKT relative to levels with 0.1 nM compound ([1]; 0.1 nM): 1.0
Normalized phosphorylated AKT (relative to actin) levels relative to 0.1 nM compound treatment ([1]; 0.1 nM): 1.0
Levels of phosphorylated AKT in treated cells (pAKT/actin) ([1]; 1 nM compound): 0.89
p-AKT relative to levels with 0.1 nM compound ([1]; 1 nM): 1.3
Normalized phosphorylated AKT (relative to actin) levels relative to 0.1 nM compound treatment ([1]; 1 nM): 1.3
Levels of phosphorylated AKT in treated cells (pAKT/actin) ([1]; 10 nM compound): 0.92
p-AKT relative to levels with 0.1 nM compound ([1]; 10 nM): 1.3
Normalized phosphorylated AKT (relative to actin) levels relative to 0.1 nM compound treatment ([1]; 10 nM): 1.3
Levels of phosphorylated AKT in treated cells (pAKT/actin) ([1]; 100 nM compound): 0.59
p-AKT relative to levels with 0.1 nM compound ([1]; 100 nM): 0.8
Normalized phosphorylated AKT (relative to actin) levels relative to 0.1 nM compound treatment ([1]; 100 nM): 0.8
% Inh @ 30 nM (N1) (IR; N1): −2%
% Inh @ 30 nM (N2) (IR; N2): 4%
% Inh @ 30 nM Avg (IR; average): 1%

SMILES: O=C(Nc1ccc(F)nc1)C1CC(O)CN1c1nc2c(c(Nc3cc(C4CC4)[nH]n3)n1)CCC2 (racemic) [Compound 10c, 1-(4-(5-cyclopropyl-1H-pyrazol-3-ylamino)-6,7-dihydro-5H-cyclopenta[d]pyrimidin-2-yl)-N-(6-fluoropyridin-3-yl)-4-hydroxypyrrolidine-2-carboxamide]
% Inh @ 30 nM Avg (IGF-1R; average): 15%

Continued, in another order:

inhibition at 0.03 µM (IGF-1R; [2]): 82%
inhibition at 0.03 µM (IGF-1R; [3]): 80%
inhibition at 0.03 µM (IGF-1R; [4]): 81%
inhibition at 0.03 µM (IR; [2]): 84%
inhibition at 0.03 µM (IR; [3]): 80%
inhibition at 0.03 µM (IR; [4]): 82%
SMILES: CC(C)c1cc(Nc2nc(N3CCCC3C(=O)Nc3ccc(F)nc3)nc3c2CCCC3)n[nH]1 (single isomer, unassigned) [Compound 13b, N-(6-fluoropyridin-3-yl)-1-(4-(5-isopropyl-1H-pyrazol-3-ylamino)-5,6,7,8-tetrahydroquinazolin-2-yl)pyrrolidine-2-carboxamide]
Levels of phosphorylated AKT in treated cells (pAKT/actin) ([1]; 0.1 nM compound): 0.22
p-AKT relative to levels with 0.1 nM compound ([1]; 0.1 nM): 1.0
Normalized phosphorylated AKT (relative to actin) levels relative to 0.1 nM compound treatment ([1]; 0.1 nM): 1.0
pAKT relative to 0.1 nM compound ([1]; 0.1 nM): 1.00
Levels of phosphorylated AKT in treated cells (pAKT/actin) ([1]; 1 nM compound): 0.09
p-AKT relative to levels with 0.1 nM compound ([1]; 1 nM): 0.4
Normalized phosphorylated AKT (relative to actin) levels relative to 0.1 nM compound treatment ([1]; 1 nM): 0.4
pAKT relative to 0.1 nM compound ([1]; 1 nM): 0.49
Levels of phosphorylated AKT in treated cells (pAKT/actin) ([1]; 10 nM compound): 0.00
p-AKT relative to levels with 0.1 nM compound ([1]; 10 nM): 0.0
Normalized phosphorylated AKT (relative to actin) levels relative to 0.1 nM compound treatment ([1]; 10 nM): 0.0
pAKT relative to 0.1 nM compound ([1]; 10 nM): 0.04
Levels of phosphorylated AKT in treated cells (pAKT/actin) ([1]; 100 nM compound): 0.00
p-AKT relative to levels with 0.1 nM compound ([1]; 100 nM): 0.0
Normalized phosphorylated AKT (relative to actin) levels relative to 0.1 nM compound treatment ([1]; 100 nM): 0.0
pAKT relative to 0.1 nM compound ([1]; 100 nM): 0.02

inhibition at 0.03 µM (IGF-1R; [4]): 13%
inhibition at 0.03 µM (IR; [4]): 8%
SMILES: CC(C)c1cc(Nc2nc(N3CCCC3C(=O)N(C)c3ccc(F)nc3)nc3c2CCC3)n[nH]1 (stereo not drawn) [Compound 55a, N-(6-fluoropyridin-3-yl)-1-(4-((5-isopropyl-1H-pyrazol-3-yl)amino)-6,7-dihydro-5H-cyclopenta[d]pyrimidin-2-yl)-N-methylpyrrolidine-2-carboxamide]

% Inh @ 30 nM Avg (IGF-1R; average): 14%
% Inh @ 30 nM Avg (IR; average): 3%
SMILES: CC(C)c1cc(Nc2nc(N3CCCC3C(N)=O)nc3c2CCC3)n[nH]1 (single isomer, unassigned) [Compound 18a, 1-(4-(5-isopropyl-1H-pyrazol-3-ylamino)-6,7-dihydro-5H-cyclopenta[d]pyrimidin-2-yl)pyrrolidine-2-carboxamide]

inhibition at 0.03 µM (IGF-1R; [4]): 84%
inhibition at 0.03 µM (IR; [4]): 85%
SMILES: O=C(Nc1ccc(F)nc1)C1CC(O)CN1c1nc2c(c(Nc3cc(C4CC4)[nH]n3)n1)CCC2 (single isomer, unassigned) [Compound 10d, 1-(4-(5-cyclopropyl-1H-pyrazol-3-ylamino)-6,7-dihydro-5H-cyclopenta[d]pyrimidin-2-yl)-N-(6-fluoropyridin-3-yl)-4-hydroxypyrrolidine-2-carboxamide]

% Inh @ 30 nM Avg (IGF-1R; average): −11%
SMILES: O=C(Nc1ccc(F)nc1)C1CC(O)CN1c1nc2c(c(Nc3cc(C4CC4)[nH]n3)n1)CCC2 (racemic) [Compound 10b, 1-(4-(5-cyclopropyl-1H-pyrazol-3-ylamino)-6,7-dihydro-5H-cyclopenta[d]pyrimidin-2-yl)-N-(6-fluoropyridin-3-yl)-4-hydroxypyrrolidine-2-carboxamide]
Levels of phosphorylated AKT in treated cells (pAKT/actin) ([1]; 0.1 nM compound): 2.21
p-AKT relative to levels with 0.1 nM compound ([1]; 0.1 nM): 1.0
Normalized phosphorylated AKT (relative to actin) levels relative to 0.1 nM compound treatment ([1]; 0.1 nM): 1.0
Levels of phosphorylated AKT in treated cells (pAKT/actin) ([1]; 1 nM compound): 2.75
p-AKT relative to levels with 0.1 nM compound ([1]; 1 nM): 1.2
Normalized phosphorylated AKT (relative to actin) levels relative to 0.1 nM compound treatment ([1]; 1 nM): 1.2
Levels of phosphorylated AKT in treated cells (pAKT/actin) ([1]; 10 nM compound): 1.71
p-AKT relative to levels with 0.1 nM compound ([1]; 10 nM): 0.8
Normalized phosphorylated AKT (relative to actin) levels relative to 0.1 nM compound treatment ([1]; 10 nM): 0.8
Levels of phosphorylated AKT in treated cells (pAKT/actin) ([1]; 100 nM compound): 1.66
p-AKT relative to levels with 0.1 nM compound ([1]; 100 nM): 0.8
Normalized phosphorylated AKT (relative to actin) levels relative to 0.1 nM compound treatment ([1]; 100 nM): 0.8
